Data as given in patent publication US20180273480A1, “INOSITOL NICOTINATE CRYSTALLINE FORM A AND PREPARATION METHOD THEREFOR” (WEIFANG SHENGYU PHARMA CO., LTD., priority 2015, published 2018).

What was measured:
[1] = cited from earlier work
[2] = Storage stability of the crystal form at 40° C. and 75% RH for six months, XRPD comparison (FIG. 5); type: physicochemical; details: stored at 40° C. and 75% RH for six months
Experimental: FIG. 5 is an X-ray powder diffraction (XRPD) comparison diagram of crystal form A of inositol nicotinate provided by the present invention stored for half a year at 40° C. and under the condition of 75% of relative humidity.
XRPD analysis: It was detected at room temperature using a Bruker D8 advance type diffractometer from German Brook Instrument Co., Ltd by Cu-Kα rays (λ=1.5418 Å), with a 2θ angle scanning from 3° to 40°, and the scanning speed was 0.2°/second.
The crystal form A of inositol nicotinate obtained in the above examples was stored under conditions of 40° C. and 75% RH for six months.

| SMILES | solubility in chloroform ([1]; chloroform) | solubility in ethanol ([1]; ethanol and other organic solvents) | solubility in dimethyl sulfoxide ([1]; hot dimethylformamide or dimethyl sulfoxide) | solubility in hot dimethylformamide ([1]; hot dimethylformamide) | solubility in water ([1]; water) | crystal form after storage (physical stability, XRPD comparison) [2] |
| --- | --- | --- | --- | --- | --- | --- |
| O=C(O[C@H]1[C@H](OC(=O)c2cccnc2)[C@@H](OC(=O)c2cccnc2)[C@H](OC(=O)c2cccnc2)[C@@H](OC(=O)c2cccnc2)[C@H]1OC(=O)c1cccnc1)c1cccnc1 [Inositol nicotinate, cis-1,2,3,5-trans-4,6-cyclohexanehexol niacinate] | very slightly soluble | insoluble | only soluble | only soluble | insoluble | – |
| O=C(O[C@H]1[C@H](OC(=O)c2cccnc2)[C@@H](OC(=O)c2cccnc2)[C@H](OC(=O)c2cccnc2)[C@@H](OC(=O)c2cccnc2)[C@H]1OC(=O)c1cccnc1)c1cccnc1 [crystal form A of inositol nicotinate, cis-1,2,3,5-trans-4,6-cyclohexanehexol niacinate] | – | – | – | – | – | has not changed |
